Legend:
Human Factor XIIa = Human Factor XIIa (Homo sapiens (Human), UniProt P00748); assay: Determination of FXIIa inhibition (fluorogenic substrate H-DPro-Phe-Arg-AFC, IC50 assay); assay type: biochemical; conditions: substrate H-DPro-Phe-Arg-AFC at Km, 25° C.; class scale A-G
Procedure, shortened: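 Human FXIIa incubated at 25° C with fluorogenic substrate H-DPro-Phe-Arg-AFC at its Km concentration and varying compound concentrations. Fluorescence release monitored over 5 min at 25° C; linear rate expressed as % of uninhibited activity to derive IC50.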

Plasma Kallikrein = Plasma Kallikrein (Homo sapiens (Human), UniProt P03952); assay: Determination of related protease inhibition: Plasma Kallikrein (fluorogenic substrate at Km); assay type: biochemical; conditions: 25° C., read-out: IC50 (human PKal)
Sequence of Plasma Kallikrein (P03952 391-638): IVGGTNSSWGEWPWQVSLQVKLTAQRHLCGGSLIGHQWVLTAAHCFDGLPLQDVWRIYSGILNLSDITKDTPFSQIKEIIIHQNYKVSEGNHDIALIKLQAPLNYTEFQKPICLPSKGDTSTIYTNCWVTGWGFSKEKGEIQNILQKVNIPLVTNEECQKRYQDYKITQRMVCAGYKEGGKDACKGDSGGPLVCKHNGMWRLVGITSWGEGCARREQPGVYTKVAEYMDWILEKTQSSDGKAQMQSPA
Sequence of Plasma Kallikrein (P03952 20-390 partner): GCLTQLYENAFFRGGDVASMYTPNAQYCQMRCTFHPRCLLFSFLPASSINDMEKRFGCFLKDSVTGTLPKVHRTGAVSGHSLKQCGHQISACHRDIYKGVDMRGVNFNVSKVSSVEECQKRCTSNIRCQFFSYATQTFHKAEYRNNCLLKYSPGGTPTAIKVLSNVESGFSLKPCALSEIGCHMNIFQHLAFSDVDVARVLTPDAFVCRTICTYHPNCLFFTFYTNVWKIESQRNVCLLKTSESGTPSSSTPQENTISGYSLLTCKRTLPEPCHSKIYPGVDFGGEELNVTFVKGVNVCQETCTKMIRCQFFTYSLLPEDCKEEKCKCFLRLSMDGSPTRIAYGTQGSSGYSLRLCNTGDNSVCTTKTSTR
Procedure, shortened: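 Human enzymes incubated with varied inhibitor concentrations and fluorogenic substrate at Km. Fluorescence release followed over 5 min at 25 °C; linear rate expressed as % activity, IC50 as inhibitor concentration giving 50% inhibition of uninhibited enzyme.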

Sequence of Human Factor XIIa (P00748 373-615): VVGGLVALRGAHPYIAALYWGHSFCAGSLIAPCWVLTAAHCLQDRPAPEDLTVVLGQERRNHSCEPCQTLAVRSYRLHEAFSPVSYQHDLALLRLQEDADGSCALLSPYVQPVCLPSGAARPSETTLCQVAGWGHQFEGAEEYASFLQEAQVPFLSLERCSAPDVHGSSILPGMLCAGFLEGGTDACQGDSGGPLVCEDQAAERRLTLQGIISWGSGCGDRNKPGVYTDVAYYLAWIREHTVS

IC50 (Human Factor XIIa)	IC50 (Plasma Kallikrein)	Compound
3 to 10 µM	> 40 µM	Nc1ncc(Cl)c2cc(NCc3ccc(N4CCn5nccc5C4CO)nc3)ccc12 (stereo not shown) [Example 1273, (5-(5-(((1-amino-4-chloroisoquinolin-6-yl)amino)methyl)pyridin-2-yl)-4,5,6,7-tetrahydropyrazolo[1,5-a]pyrazin-4-yl)methanol]
1 to 3 µM	> 40 µM	Nc1nccc2c(NCc3ccc(N4CCn5cnnc5C4)nc3)cccc12 [Example 1276, N5-((6-(5,6-dihydro-[1,2,4]triazolo[4,3-a]pyrazin-7(8H)-yl)pyridin-3-yl)methyl)isoquinoline-1,5-diamine]
1 to 3 µM	> 40 µM	Cc1cc2c(NCc3ccc(N4CCn5c(nnc5C(F)F)C4)nc3)ccnc2[nH]1 [Example 1278, N-((6-(3-(Difluoromethyl)-5,6-dihydro-[1,2,4]triazolo[4,3-a]pyrazin-7(8H)-yl)pyridin-3-yl)methyl)-2-methyl-1H-pyrrolo[2,3-b]pyridin-4-amine]
0.3 to 1 µM	> 40 µM	FC(F)(F)c1nnc2n1CCN(c1ccc(CNc3ccnc4[nH]c(Cl)cc34)cn1)C2 [Example 1280, 2-chloro-N-((6-(3-(trifluoromethyl)-5,6-dihydro-[1,2,4]triazolo[4,3-a]pyrazin-7(8H)-yl)pyridin-3-yl)methyl)-1H-pyrrolo[2,3-b]pyridin-4-amine]
10 to 40 µM	> 40 µM	CNc1cc(NCc2ccc(N3CCn4c(nnc4C(F)F)C3)nc2)ccn1 [Example 1281, N4-((6-(3-(difluoromethyl)-5,6-dihydro-[1,2,4]triazolo[4,3-a]pyrazin-7(8H)-yl)pyridin-3-yl)methyl)-N2-methylpyridine-2,4-diamine]
3 to 10 µM	> 40 µM	FC(F)(F)c1nnc2n1CCN(c1ccc(CNc3ccc4cnccc4c3)cn1)C2 [Example 1283, N-((6-(3-(trifluoromethyl)-5,6-dihydro-[1,2,4]triazolo[4,3-a]pyrazin-7(8H)-yl)pyridin-3-yl)methyl)isoquinolin-6-amine]
3 to 10 µM	> 40 µM	Nc1nccc2c(NCc3ccc(N4CCn5ncc(O)c5C4)nc3)cccc12 [Example 1312, 5-(5-(((1-aminoisoquinolin-5-yl)amino)methyl)pyridin-2-yl)-4,5,6,7-tetrahydropyrazolo[1,5-a]pyrazin-3-ol]
3 to 10 µM	10 to 40 µM	CN1CCC(OCc2ccc(CNc3ccc4nc(N)ccc4c3)cc2)CC1 [Example 2187, N6-(4-(((1-methylpiperidin-4-yl)oxy)methyl)benzyl)quinoline-2,6-diamine]
10 to 40 µM	10 to 40 µM	CN1CCC(OCc2ccc(CNc3ccc4cc(N)ncc4c3)cc2)CC1 [Example 2188, 7-N-[(4-{[(1-methylpiperidin-4-yl)oxy]methyl}phenyl)methyl]isoquinoline-3,7-diamine]
10 to 40 µM	10 to 40 µM	CN1CCC(OCc2ccc(CNc3ccc4cnc(N)cc4c3)cc2)CC1 [Example 2189, N6-(4-(((1-methylpiperidin-4-yl)oxy)methyl)benzyl)isoquinoline-3,6-diamine]
1 to 3 µM	3 to 10 µM	CN1CCC(OCc2ccc(CN(C)c3ccc4c(N)nccc4c3)cc2)CC1 [Example 2190, N6-methyl-N6-(4-(((1-methylpiperidin-4-yl)oxy)methyl)benzyl)isoquinoline-1,6-diamine]
0.1 to 0.3 µM	1 to 3 µM	CC(C)N1CCC(OCc2ccc(CNc3ccc4c(N)nccc4c3)c(F)c2)CC1 [Example 2216, 6-N-[(2-fluoro-4-{[(1-isopropylpiperidin-4-yl)oxy]methyl}phenyl)methyl]isoquinoline-1,6-diamine]
3 to 10 µM	> 40 µM	Nc1nccc2c(NCc3ccc(N4CC5(CC(O)c6nccn65)C4)cc3)cccc12 (stereo not shown) [Example 2253, 1-(4-(((1-aminoisoquinolin-5-yl)amino)methyl)phenyl)-6′,7′-dihydrospiro[azetidine-3,5′-pyrrolo[1,2-a]imidazol]-7′-ol]
0.3 to 1 µM	> 40 µM	CN1CCC(COc2cc(CNc3cnc4c(N)nccc4c3)ccn2)CC1 [Example 4293, 3-N-({2-[(1-methylpiperidin-4-yl)methoxy]pyridin-4-yl}methyl)-1,7-naphthyridine-3,8-diamine]
0.1 to 0.3 µM	> 4 µM	CC(C)N1CC2CCC(C1)C2COc1cc(CNc2cccc3c(N)nccc23)ccn1 (stereo not shown) [Example 4297, N5-((2-((3-isopropyl-3-azabicyclo[3.2.1]octan-8-yl)methoxy)pyridin-4-yl)methyl)isoquinoline-1,5-diamine]
0.1 to 0.3 µM	10 to 40 µM	Nc1ncc(Cl)c2cc(NCc3ccnc(OCC4CCn5ccnc5C4)c3)ccc12 (stereo not shown) [Example 4300, 4-Chloro-N6-[[2-(5,6,7,8-tetrahydroimidazo[1,2-a]pyridin-7-ylmethoxy)-4-pyridyl]methyl]isoquinoline-1,6-diamine]

IC50 (Human Factor XIIa)	IC50 (Plasma Kallikrein)	Compound
1 to 3 µM	10 to 40 µM	Nc1nccc2c(NCc3ccnc(NCCC(=O)N4CCCC4)c3)cccc12 [Example 4302, 3-[(4-{[(1-aminoisoquinolin-5-yl)amino]methyl}pyridin-2-yl)amino]-1-(pyrrolidin-1-yl)propan-1-one]
0.1 to 0.3 µM	> 40 µM	Nc1ncc(Cl)c2cc(NCc3ccnc(NCC4CCn5ccnc5C4)c3)ccc12 (stereo not shown) [Example 4303, 4-chloro-6-N-{[2-({5H,6H,7H,8H-imidazo[1,2-a]pyridin-7-ylmethyl}amino)pyridin-4-yl]methyl}isoquinoline-1,6-diamine]
1 to 3 µM	10 to 40 µM	Nc1nccc2c(NCc3ccnc(OC4CCn5ccnc5C4)c3)cccc12 (stereo not shown) [Example 4306, 5-N-[(2-{5H,6H,7H,8H-imidazo[1,2-a]pyridin-7-yloxy}pyridin-4-yl)methyl]isoquinoline-1,5-diamine]
0.3 to 1 µM	> 4 µM	Nc1ncc(F)c2cc(NCc3ccnc(OCC4CCn5ccnc5C4)c3)ccc12 (stereo not shown) [Example 4307, 4-fluoro-6-N-[(2-{5H,6H,7H,8H-imidazo[1,2-a]pyridin-7-ylmethoxy}pyridin-4-yl)methyl]isoquinoline-1,6-diamine]
0.1 to 0.3 µM	> 4 µM	Cc1cn2c(n1)CC(COc1cc(CNc3ccc4c(N)ncc(Cl)c4c3)ccn1)CC2 (stereo not shown) [Example 4309, 4-chloro-6-N-{[2-({2-methyl-5H,6H,7H,8H-imidazo[1,2-a]pyridin-7-yl}methoxy)pyridin-4-yl]methyl}isoquinoline-1,6-diamine]
0.1 to 0.3 µM	3 to 10 µM	Cc1cnc2n1CCC(COc1cc(CNc3cccc4c(N)nccc34)ccn1)C2 (stereo not shown) [Example 4320, N5-[[2-[(3-methyl-5,6,7,8-tetrahydroimidazo[1,2-a]pyridin-7-yl)methoxy]-4-pyridyl]methyl]isoquinoline-1,5-diamine]
10 to 40 µM	> 40 µM	CN1CCN(c2cc(CNc3cccc4c(N)nccc34)ccn2)CC1 [Example 4426, 5-N-{[2-(4-methylpiperazin-1-yl)pyridin-4-yl]methyl}isoquinoline-1,5-diamine]
10 to 40 µM	> 40 µM	CN1CCN(c2cc(CNc3ccc4c(N)ncc(Cl)c4c3)ccn2)CC1 [Example 4427, 4-chloro-6-N-{[2-(4-methylpiperazin-1-yl)pyridin-4-yl]methyl}isoquinoline-1,6-diamine]
1 to 3 µM	> 4 µM	Nc1ncc(Cl)c2cc(NCc3ccnc(NCCC(=O)N4CCCC4)c3)ccc12 [Example 4428, 3-[(4-{[(1-amino-4-chloroisoquinolin-6-yl)amino]methyl}pyridin-2-yl)amino]-1-(pyrrolidin-1-yl)propan-1-one]
1 to 3 µM	3 to 10 µM	Nc1nccc2cc(NCc3ccnc(OCC4CCn5ccnc5C4)c3)ncc12 (stereo not shown) [Example 4429, N6-[[2-(5,6,7,8-tetrahydroimidazo[1,2-a]pyridin-7-ylmethoxy)-4-pyridyl]methyl]-2,7-naphthyridine-1,6-diamine]
1 to 3 µM	> 40 µM	Nc1ncc(Cl)c2cc(NCc3ccnc(OC4CCn5ccnc5C4)c3)ccc12 (stereo not shown) [Example 4432, 4-chloro-6-N-[(2-{5H,6H,7H,8H-imidazo[1,2-a]pyridin-7-yloxy}pyridin-4-yl)methyl]isoquinoline-1,6-diamine]
1 to 3 µM	> 40 µM	Nc1ncc(Cl)c2cc(NCc3ccnc(OCc4ccn5ccnc5c4)c3)ccc12 [Example 4433, 4-chloro-6-N-[(2-{imidazo[1,2-a]pyridin-7-ylmethoxy}pyridin-4-yl)methyl]isoquinoline-1,6-diamine]
10 to 40 µM	> 40 µM	Cc1n[nH]c2c1CCC2Nc1cc(CNc2ccc3c(N)ncc(Cl)c3c2)ccn1 (stereo not shown) [Example 4440, 4-chloro-N6-((2-((3-methyl-1,4,5,6-tetrahydrocyclopenta[c]pyrazol-6-yl)amino)pyridin-4-yl)methyl)isoquinoline-1,6-diamine]
0.1 to 0.3 µM	> 40 µM	Nc1ncc(Cl)c2cc(NCc3ccnc(OCC4CCCn5ccnc54)c3)ccc12 (stereo not shown) [Example 4443, 4-chloro-N6-((2-((5,6,7,8-tetrahydroimidazo[1,2-a]pyridin-8-yl)methoxy)pyridin-4-yl)methyl)isoquinoline-1,6-diamine]
0.3 to 1 µM	> 40 µM	Nc1ncc(Cl)c2cc(NCc3ccnc(OCC4CCn5c(CO)cnc5C4)c3)ccc12 (stereo not shown) [Example 4448, (7-(((4-(((1-amino-4-chloroisoquinolin-6-yl)amino)methyl)pyridin-2-yl)oxy)methyl)-5,6,7,8-tetrahydroimidazo[1,2-a]pyridin-3-yl)methanol]
0.3 to 1 µM	> 40 µM	Nc1ncc(Cl)c2cc(NCc3ccnc(OCC4CCn5cc(CO)nc5C4)c3)ccc12 (stereo not shown) [Example 4449, (7-(((4-(((1-amino-4-chloroisoquinolin-6-yl)amino)methyl)pyridin-2-yl)oxy)methyl)-5,6,7,8-tetrahydroimidazo[1,2-a]pyridin-2-yl)methanol]

Source: patent publication US20240059691A1 (KALVISTA PHARMACEUTICALS LIMITED, priority 2020, published 2024)
